Structures can show the parent of a compound that is named as a salt.

In experiment [1] the test system is spontaneously hypertensive rats. Put plainly: Hypotensive action in spontaneously hypertensive rats, systolic arterial blood pressure by tail plethysmography, oral. The experiment is classed as in vivo. The method, then: (§1) Hypotensive action of diltiazem (which is a known hypotensive drug) measured by the same method at the doses of 3, 10 and 30 mg/kg were 0, 11.2 and 33.0%, respectively. Hypotensive action of the compound of Example 4 which is one of the most representative compounds of this invention was tested using spontaneously hypertensive rats and was compared with those of Nifedipine and Diltiazem hydrochloride. The method applied was that the drugs were orally given to the rats of which systolic arterial blood pressure were higher than 180 mmHg when it was measured plethysmographically using tail arteries. (Table 3)
Doses in mg/kg (p.o.) are as follows: *0.3 (1.0); **1.0 (3.0); ***30.

Experiment [2] deals with guinea pig heart. Put plainly: Coronary vasodilating action, constant pressure perfusion of isolated guinea pig heart (Langendorff). To be noted: Cavia porcellus, via coronary artery; for activation at 0.001 mg: 10^-6 gram/heart; for activation at 0.001 mg / activation at 0.0001 mg: read-out: Perfusion Increasing Rate; for activation at 0.0001 mg: 10^-7 gram/heart. The protocol: Constant pressure perfusion samples of guinea pig heart isolated by a method according to Langendorff were treated with the present invention compounds by administration via coronary artery and the effect was examined (Table 1).
With reference to coronary vasodilating action of diltiazem measured by the same method, the increasing rates in perfusion by administration of 10^-7, 10^-6 and 10^-5 gram/heart were 4, 16 and 55%, respectively.

Experiment [3] relates to rats (with normal blood pressure). Put plainly: Hypotensive action, mean blood pressure of femoral artery in unanesthetized normotensive rats, oral. To be noted: Rattus norvegicus, read-out: % Decreases in Mean Blood Pressure [at peak effect]; for inhibition in vivo at 3 mg/kg: 3 mg/kg oral; for inhibition in vivo at 10 mg/kg: 10 mg/kg oral; for inhibition in vivo at 1 mg/kg: 1 mg/kg oral. The experiment is classed as in vivo. The method, then:
Blood pressure of femoral artery of rats (with normal blood pressure) under unanesthetized condition was measured directly using a pressure tranducer.
The present invention compounds were given orally at doses of 1, 3 and 10 mg/kg, and changes in blood pressure were continuously recorded. Percent decreases of mean blood pressure at the peak effect were calculated. The maximum changes in mean blood pressure (%) were shown as "hypotensive action" (Table 2).
as §1

Setting [4] is: 0.5 hr after administration, 1.0 mg/kg p.o.
Where [5] appears, read: 1 hr after administration, 1.0 mg/kg p.o.
Where [6] appears, read: 2 hr after administration, 1.0 mg/kg p.o.
[7] abbreviates: 3 hr after administration, 1.0 mg/kg p.o.
Setting [8] is: 5 hr after administration, 1.0 mg/kg p.o.
The mark [9] stands for this setting: 8 hr after administration, 1.0 mg/kg p.o.
[10] abbreviates: 12 hr after administration, 1.0 mg/kg p.o.
[11] abbreviates: before administration, 1.0 mg/kg p.o.

Consider `COC(=O)C1=C(C)NC(C)=C(C(=O)OC)C1c1ccccc1[N+](=O)[O-]` [Nifedipine, dimethyl 2,6-dimethyl-4-(2-nitrophenyl)-1,4-dihydropyridine-3,5-dicarboxylate], for which the “systolic arterial blood pressure” value came to 139.3 ± 6.9 in experiment [1] (setting [4]); 112.8 ± 6.0 in experiment [1] (0.5 hr after administration, 3.0 mg/kg p.o.); 161.3 ± 4.1 in experiment [1] (setting [5]); 125.8 ± 4.4 in experiment [1] (1 hr after administration, 3.0 mg/kg p.o.); 183.5 ± 10.0 in experiment [1] (setting [6]); 148.7 ± 9.9 in experiment [1] (2 hr after administration, 3.0 mg/kg p.o.). The “systolic arterial blood pressure” value stood at 188.3 ± 5.8 in experiment [1] (setting [7]); 176.8 ± 2.6 in experiment [1] (3 hr after administration, 3.0 mg/kg p.o.); 187.2 ± 5.3 in experiment [1] (setting [8]); 183.8 ± 6.0 in experiment [1] (5 hr after administration, 3.0 mg/kg p.o.); 190.9 ± 4.8 in experiment [1] (setting [9]); 188.5 ± 2.9 in experiment [1] (8 hr after administration, 3.0 mg/kg p.o.). In addition, the “systolic arterial blood pressure” value in experiment [1] (setting [10]) is given as 190.3 ± 5.5; in experiment [1] (12 hr after administration, 3.0 mg/kg p.o.), 190.0 ± 7.0; in experiment [1] (setting [11]) it was 194.8 ± 2.1; in experiment [1] (before administration, 3.0 mg/kg p.o.) it was 189.0 ± 5.1.
As to `COc1ccc([C@@H]2Sc3ccccc3N(CCN(C)C)C(=O)[C@@H]2OC(C)=O)cc1` [diltiazem, reference compound], the activation at 1e-05 g/heart, 1e-05 g/heart in experiment [2] (10^-5 gram/heart, read-out: increasing rate in perfusion) stood at 55%. Moreover, in experiment [2], the activation at 0.001 mg was 16% and the activation at 0.0001 mg was 4%. Besides, in experiment [3], the inhibition in vivo at 3 mg/kg came to 0% and the inhibition in vivo at 10 mg/kg came to 11.2%. The inhibition in vivo at 30 mg/kg in experiment [3] (30 mg/kg oral) is 33%.
Regarding `CC1=C(C(=O)OCCN(C)Cc2ccccc2)C(c2cccc(Cl)c2Cl)C(P2(=O)OCC(C)(C)CO2)=C(C)N1` (centres unmarked) [Example 59, 2-(N-Benzyl-N-methylamino)-ethyl 4-(2,3-dichlorophenyl)-2,6-dimethyl-5-(5,5-dimethyl-2-oxo-1,3,2-dioxaphosphorinan-2-yl)-1,4-dihydropyridine-3-carboxylate], in experiment [2], the activation at 0.001 mg amounted to 33% and the activation at 0.0001 mg stood at 24%. Further, in experiment [3], the inhibition in vivo at 1 mg/kg amounted to 7.1%, the inhibition in vivo at 3 mg/kg turned out to be 29.1% and the inhibition in vivo at 10 mg/kg came out at 35.1%.
`CCOC(=O)C1=C(C)NC(C)=C(P2(=O)OCC(C)(C)CO2)C1c1cccc([N+](=O)[O-])c1` (centres unmarked) [Example 8, Ethyl 2,6-dimethyl-5-(5,5-dimethyl-2-oxo-1,3,2-dioxaphosphorinan-2-yl)-4-(3-nitrophenyl-1)-1,4-dihydropyridine-3-carboxylate]: in experiment [2], the activation at 0.001 mg is 33% and the activation at 0.0001 mg was 11%. For the same compound, in experiment [3], the inhibition in vivo at 1 mg/kg turned out to be 8.1%, the inhibition in vivo at 3 mg/kg worked out at 15.5% and the inhibition in vivo at 10 mg/kg was found to be 37.1%.
On to `COC(=O)C1=C(C)NC(C)=C(P2(=O)OCCCO2)C1c1ccccc1[N+](=O)[O-]` (centres unmarked) [Example 4, Methyl 2,6-dimethyl-4-(2-nitrophenyl)-5-(2-oxo-1,3,2-dioxaphosphorinan-2-yl)-1,4-dihydropyridine-3-carboxylate], for which, in experiment [3], the inhibition in vivo at 1 mg/kg was 42.6%. Also, the inhibition in vivo at 3 mg/kg in experiment [3] was 39%. In experiment [3], the inhibition in vivo at 10 mg/kg was determined as 41.9%. Besides, the “systolic arterial blood pressure” value in experiment [1] (0.5 hr after administration, 0.3 mg/kg p.o.) worked out at 126.0 ± 3.9; in experiment [1] (setting [4]), 87.7 ± 4.9; in experiment [1] (1 hr after administration, 0.3 mg/kg p.o.), 124.0 ± 3.3; in experiment [1] (setting [5]) it was 90.2 ± 6.3; in experiment [1] (2 hr after administration, 0.3 mg/kg p.o.) it was 134.2 ± 4.3; in experiment [1] (setting [6]) it was 103.2 ± 7.3. The “systolic arterial blood pressure” value came to 152.5 ± 4.0 in experiment [1] (3 hr after administration, 0.3 mg/kg p.o.); 133.3 ± 5.3 in experiment [1] (setting [7]); 156.8 ± 8.3 in experiment [1] (5 hr after administration, 0.3 mg/kg p.o.); 150.7 ± 7.7 in experiment [1] (setting [8]); 158.3 ± 7.2 in experiment [1] (8 hr after administration, 0.3 mg/kg p.o.); 152.8 ± 6.5 in experiment [1] (setting [9]). Also, the “systolic arterial blood pressure” value in experiment [1] (12 hr after administration, 0.3 mg/kg p.o.) is 170.7 ± 5.4; in experiment [1] (setting [10]) it was 165.3 ± 6.1; in experiment [1] (24 hr after administration, 0.3 mg/kg p.o.), 195.3 ± 5.9; in experiment [1] (24 hr after administration, 1.0 mg/kg p.o.), 187.7 ± 7.5; in experiment [1] (before administration, 0.3 mg/kg p.o.) it was 185.2 ± 5.4; in experiment [1] (setting [11]), 193.0 ± 6.5.
Regarding `COc1ccc([C@@H]2Sc3ccccc3N(CCN(C)C)C(=O)[C@@H]2OC(C)=O)cc1` [Diltiazem.HCl], the “systolic arterial blood pressure” value in experiment [1] (0.5 hr after administration, 30 mg/kg p.o.) was 153.6 ± 5.4; in experiment [1] (1 hr after administration, 30 mg/kg p.o.), 141.8 ± 10.8; in experiment [1] (2 hr after administration, 30 mg/kg p.o.) it was 156.2 ± 8.8; in experiment [1] (3 hr after administration, 30 mg/kg p.o.), 170.5 ± 4.8; in experiment [1] (5 hr after administration, 30 mg/kg p.o.), 183.2 ± 2.8; in experiment [1] (8 hr after administration, 30 mg/kg p.o.), 189.3 ± 4.6. For the same compound, the “systolic arterial blood pressure” value in experiment [1] (12 hr after administration, 30 mg/kg p.o.) is 188.5 ± 2.0; in experiment [1] (before administration, 30 mg/kg p.o.), 191.2 ± 5.4.
With `CC1=C(C(=O)OC2CCN(Cc3ccccc3)CC2)C(c2cccc([N+](=O)[O-])c2)C(P2(=O)OCCCO2)=C(C)N1` (centres unmarked) [Example 3, N-Benzyl-4-piperidinyl 2,6-dimethyl-4-(3-nitrophenyl)-5-(2-oxo-1,3,2-dioxaphosphorinan-2-yl)-1,4-dihydropyridine-3-carboxylate], in experiment [2], the activation at 0.001 mg is 18% and the activation at 0.0001 mg was 10%. In experiment [3], the inhibition in vivo at 1 mg/kg was 8.2%, the inhibition in vivo at 3 mg/kg was found to be 11.1% and the inhibition in vivo at 10 mg/kg was 20.9%.
On the same counts, the results for `COC(=O)C1=C(C)NC(C)=C(P2(=O)OCCCO2)C1c1ccccc1C(F)(F)F` (centres unmarked) [Example 50, Methyl 2,6-dimethyl-5-(2-oxo-1,3,2-dioxaphosphorinan-2-yl)-4-(2-trifluoromethylphenyl)-1,4-dihydropyridine-3-carboxylate] are 46%, 15%, 42.3%, 44.3% and 47.2%.

The values are drawn from patent US5036059A, “1,4-Dihydropyridine-3-carboxylate derivatives” (Nippon Shinyaku Company, Limited, priority 1984, dated 1991).
